Test results as given in US11931335B2, “Enhancing autophagy or increasing longevity by administration of urolithins or precursors thereof” (Amazentis SA, priority 2012, dated 2024).
Read-outs that look alike come from different tables or passages of the source.

What was measured:
[1] = tested on: aak-2(ok524) mutant C. elegans; format: in vivo; conditions: aak-2 (o524); for Lifespan extension compared to control (%): 50 μM UA vs 1% DMSO
Procedure: (§1) Lifespan assays were performed with (A) wild-type (N2), (B) sir-2.1(ok434) mutant, (C) aak-2(ok524), (D) daf-16(mu86), (E) eat-2(ad465) and (F) daf-2(e1370) mutant strains of C. elegans maintained during their full life on plates supplemented with either 50 μM of urolithin A or with a control treatment and seeded with OP50 bacteria. Control plates without urolithin A contained an equivalent concentration of DMSO. Worm lifespan assays were performed at 20° C.
aak-2/AMPK: aak-2 encodes the mammalian homolog of the AMP-dependent kinase AMPK in C. elegans.

[2] = tested on: daf-16(mu86) mutant C. elegans; assay: Lifespan assay, daf-16 mutant C. elegans; format: in vivo
Procedure: as §1
daf-16 encodes a FOXO transcription factor.

[3] = tested on: daf-2(e1370) mutant C. elegans; format: in vivo
Procedure: as §1
daf-2 encodes for the insulin-like growth factor 1 (IGF-1) receptor in C. elegans.

[4] = tested on: mitochondria in muscle of C. elegans strain SJ4103; assay: Mitochondrial GFP reporter in muscle of C. elegans; format: in vivo; conditions: 50 μM from eggs, GFP after one day of adulthood; FIG. 7
Procedure: The worms were treated from eggs to the first day of adulthood. The strains used were the SJ4103 (zcIs14[myo-3::GFP(mit)]), which is a stable transgenic line expressing a mitochondrially localized green fluorescent protein (GFP) with a cleavable mitochondrial import signal peptide under the control of the specific body wall muscle promoter myo-3. GFP expression and quantification was carried out according to the protocol previously described. […] Fluorimetric assays were performed using a Victor X4 multilabel plate reader (Perkin-Elmer Life Science). Eighty worms were picked at random (20 worms per well of a black-walled 96-well plate), and each well was read four times and averaged.

[5] = tested on: C. elegans strain DA2122 (LGG-1::GFP); assay: Autophagy induction, LGG-1::GFP dots in C. elegans; format: in vivo; conditions: 50 μM from eggs to second day of adulthood; FIGS. 9A-9B
Procedure: C. elegans strains were cultured at 20° C. on nematode growth media (NGM) agar plates seeded with OP50 bacteria and containing 50 μM urolithin A or a corresponding concentration of DMSO as a control. The worms were treated from eggs to the second day of the adulthood. The strains used were the DA2122 (adIs2122[lgg-1::GFP+rol-6(su1006)]), which is a transgenic line expressing the LGG-1 protein (homolog of LC3 in human) fused with the green fluorescent protein (GFP). For picture acquisition, worms were immobilized with tetramisole (Sigma) and mounted on 6% agarose pads on glass slides. Images were acquired using Zeiss LSM 700 upright confocal microscope (Carl Zeiss A G, Oberkochen, Germany) from the same part of C. elegans. For each condition multiple worms were observed and imaged with the same initial parameters. Image processing and quantification of autophagic events was performed with the Fiji software.

C. elegans = assay: Pharyngeal pumping in C. elegans; format: in vivo; conditions: day 14 (aged worms); 50 μM; FIG. 11
Procedure: To examine the effect of urolithins on muscle function, pharyngeal pumping was examined in C. elegans worms at day 7 and day 14. Worms were observed using a Nikon SMZ1500 stereomicroscope (Nikon, Melville, NY, USA). Ten L4 worms were transferred on plates containing NGM medium with vehicle (DMSO 0.1%, final concentration) or the compound of interest (urolithin A (UA), urolithin B (UB), urolithin C (UC), urolithin D (UD)) dissolved in DMSO (final concentration 50 μM) and seeded with E. coli RNAi clones as indicated. After 3 days (corresponding to day 0), newly developed 60 to 100 L4 worms were used per condition, scored and transferred to fresh plates every 3 days starting from day 1 (young adult worms). Experiments were performed at 20° C.
The pharyngeal pumping rates at day 7 and 14 were measured for 10 worms by transferring single worms to an unseeded plate and scoring for pharyngeal pumping under a dissecting microscope for 30 seconds. The pharyngeal pumping rates were then computed by extrapolating the pumping made by worms during this 30 second period.

ModeK cells = assay: Autophagy western blot in ModeK cells; format: cell-based, mouse; conditions: 10 μM, 20 μM and 50 NM, eight hours
Procedure: The ability of urolithins to induce autophagy in mammalian cells was also examined. ModeK cells derived from intestine, were cultured in RPMI 1640 medium including 4.5 g/L glucose, 10% fetal calf serum, 1 mM Sodium Pyruvate, 10 mM HEPES, 0.1 mM NEAA, 2-Mercaptoethanol Penicillin 100 UI/mL and Streptomycin 100 μg/mL. Cells were cultured at 37° C. under a 5% CO2 atmosphere. Cells were treated with increasing concentrations of urolithin A (10 μM, 20 μM and […]). Treatment was performed for eight hours, after which cells were lysed and prepared for Western Blot analysis. Protein expression levels were examined for autophagy related proteins LC3-I and II (Cell Signaling antibody #4108), p62 (Cell Signalling antibody #5114), AMPKα (Cell Signaling antibody #2603), and p-AMPKα(Cell Signaling antibody #2531). The housekeeping protein, HSP90 (BD Transduction Laboratories antibody #610418) level was measured as a loading control.

[6] = tested on: primary mouse hepatocytes; assay: Autophagy western blot in primary hepatocytes; format: cell-based; conditions: 16 hour
Procedure: Isolated primary hepatocytes were cultured in Medium 199 including 4.5 g/L glucose, 10% fetal calf serum, 0.1 mM NEAA, 10 mM HEPES and 50 μg/mL gentamicin. These cells were then treated with either 10 μM, 20 μM or 50 μM of urolithin A for a 16 hour period, after which cells were lysed and prepared for Western Blot analysis.
Protein expression levels were examined for autophagy related proteins LC3-I and II (Cell Signaling antibody #4108), p62 (Cell Signalling antibody #5114), AMPKα (Cell Signaling antibody #2603), and p-AMPKα(Cell Signaling antibody #2531). The housekeeping protein, HSP90 (BD Transduction Laboratories antibody #610418) level was measured as a loading control.

C57BL/6J mice = assay: Spontaneous running wheel activity in young mice; format: in vivo, mouse; conditions: for increase over untreated controls in the cumulative distance covered: 55 mg/kg/day in food, 11 weeks
Procedure: To examine the effect of urolithin A treatment on activity and muscle function in mammals, 10-week-old C57BL/6J mice were treated with either a standard rodent diet or a diet containing urolithin A mixed with food to reach a dosing of 55 mg/kg/day delivered to the mice. Following 11 weeks of treatment with urolithin A, a 23 cm in diameter running wheel was placed in the cage of each mouse. Spontaneous exercise activity was measured over a five day period at 20 min intervals, allowing the capture of the circadian rhythm of the exercise activity.

aged C57BL/6J mice = assay: Running wheel activity in aged high fat diet mice; format: in vivo, mouse; conditions: 50 mg/kg/day, 30 weeks, dark phase of day 2, FIG. 21
Procedure: To examine the effects of urolithin A treatment on motor activity in aged mammals 17-month-old C57BL/6J mice were treated with either a high fat rodent diet or a high fat rodent diet containing urolithin A mixed with food to reach a dosing of 50 mg/kg/day delivered to the mice.
Following 30 weeks of treatment with urolithin A, mice were housed individually and a 23 cm diameter running wheel was placed in the cage of each mouse. Spontaneous exercise activity was measured continuously over a two day period allowing the capture of the circadian rhythm of the exercise activity. Afterwards, mice were returned to their home cages.
Mice became habituated to the presence of the activity wheel on day 1. To measure the effect of urolithin A treatment on activity as well as muscle function, the cumulative distance that animals covered during the peak running period (dark phase) of day 2 was measured.

## O=c1oc2cc(O)ccc2c2ccc(O)cc12 [Urolithin A, urolithin A]
[1]; 50 μM UA
  Median lifespan: 18 days
[1]
  Lifespan extension compared to control (%): 12.5%
[1]; listed as UA
  Lifespan extension compared to control (%): +12.5%
[2]; 50 μM UA
  Median lifespan: 23 days
[2]; 50 μM UA vs 1% DMSO
  Lifespan extension compared to control (%): +43.7%
[3]; daf-2, 50 μM UA
  Median lifespan: 48 days
[3]; daf-2, 50 μM UA vs 1% DMSO
  Lifespan extension compared to control (%): +14.2%
[3]; daf-2 mutant
  activity of urolithin A on the extension of median lifespan: completely suppressed
[4]
  expression of the mitochondrial GFP reporter (myo-3 promoter): striking increase in GFP expression
[5]
  number of autophagic events (LGG-1::GFP dots per focal field): increases the number of autophagic events
C. elegans
  pharyngeal pumping (muscle function): decreases the age related decline in muscle activity
ModeK cells
  levels of p62: decreased
ModeK cells; FIG. 14
  ratio of LC3-II/LC3-I vs vehicle-treated cells: ≤ 10 fold
[6]; 10 μM, 20 μM or 50 μM
  P62 protein levels: decrease
[6]; 10 μM, 20 μM or 50 μM, FIG. 15
  ratio of LC3-II to LC3-I: dose-dependent effect and increase
[6]; 20 and […]
  ratio of p-AMPKα/AMPK-u vs control cells: above 10 fold
C57BL/6J mice; final two days
  increase over untreated controls in the cumulative distance covered: 29%
C57BL/6J mice; initial 3 days, FIG. 20
  increase over untreated controls in the cumulative distance covered: 25%
C57BL/6J mice; 55 mg/kg/day, five-day period, FIG. 20
  increase in spontaneous voluntary running on a running wheel: at least 25%
Aged C57BL/6J mice
  increase in cumulative distance run: 57%
